The text below walks through data of patent publication US7863449B2, “Modulators of muscarinic receptors” (Vertex Pharmaceuticals Incorporated, priority 2004, dated 2011).

The target in one experiment is T1, M1 muscarinic receptor (Homo sapiens, UniProt P11229).
T1 construct: expressed in transfected cells; host or cells: CHO (M1-CHO)
T1 sequence (P11229 1-460): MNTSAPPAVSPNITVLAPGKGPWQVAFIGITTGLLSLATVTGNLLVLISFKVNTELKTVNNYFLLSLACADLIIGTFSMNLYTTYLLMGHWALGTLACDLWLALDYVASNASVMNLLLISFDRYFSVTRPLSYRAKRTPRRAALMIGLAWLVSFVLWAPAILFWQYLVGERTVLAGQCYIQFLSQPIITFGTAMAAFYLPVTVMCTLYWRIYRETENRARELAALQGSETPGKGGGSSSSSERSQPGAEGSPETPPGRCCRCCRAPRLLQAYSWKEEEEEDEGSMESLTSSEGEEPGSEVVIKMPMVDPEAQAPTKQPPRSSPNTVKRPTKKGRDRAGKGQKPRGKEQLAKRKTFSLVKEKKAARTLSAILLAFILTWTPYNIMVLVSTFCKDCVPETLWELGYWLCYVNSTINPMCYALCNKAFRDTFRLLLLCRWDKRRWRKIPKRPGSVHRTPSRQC
Description: Functional mobilization of intracellular calcium (FLIPR), M1-CHO cells. It is filed as cell-based. The conditions noted are these: for Emax: 100% efficacy is the maximum response obtained using Carbachol as a control; for M1 Activity: M1-CHO cells, FLIPR calcium mobilization. In outline: (§1)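 Calcium flux recorded 60 s (ex 488, em 540 nm) in dye-loaded M1- or M4-CHO cells in pH 7.4 buffer with 1 mM probenecid. Inhibition measured against carbachol EC80 after 15 min compound pre-incubation or co-addition; agonism measured by compound addition alone. Final DMSO 0.5%.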
For orientation: Calcium flux is commonly read through the fluorescence of an indicator in the cells.

The next experiment deals with T2, M4 muscarinic receptor (Homo sapiens, UniProt P08173).
T2 construct: expressed in transfected cells; host or cells: CHO (M4-CHO)
T2 sequence (P08173 1-479): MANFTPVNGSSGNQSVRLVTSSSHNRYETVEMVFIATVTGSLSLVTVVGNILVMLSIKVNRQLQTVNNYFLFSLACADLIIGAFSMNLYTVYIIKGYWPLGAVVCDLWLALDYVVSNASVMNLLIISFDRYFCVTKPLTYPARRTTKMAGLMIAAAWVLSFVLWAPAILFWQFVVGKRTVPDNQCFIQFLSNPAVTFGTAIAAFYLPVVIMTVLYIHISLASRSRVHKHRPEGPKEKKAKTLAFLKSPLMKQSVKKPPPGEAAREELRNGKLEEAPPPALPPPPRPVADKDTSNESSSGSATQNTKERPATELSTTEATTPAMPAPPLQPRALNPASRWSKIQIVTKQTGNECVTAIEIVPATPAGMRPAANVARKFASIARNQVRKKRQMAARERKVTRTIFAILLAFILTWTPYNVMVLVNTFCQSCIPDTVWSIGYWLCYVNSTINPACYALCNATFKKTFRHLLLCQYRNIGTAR
Description: Functional mobilization of intracellular calcium (FLIPR), M4-CHO cells. As to conditions: for Emax: 100% efficacy is the maximum response obtained using Carbachol as a control; for M4 Activity: M4-CHO cells, FLIPR calcium mobilization. It is filed as cell-based. In outline: as §1

What is called Emax is the greatest response seen or fitted, relative to the assay's reference. As for `CC(=O)N1Cc2ccccc2C2(CCN(C3CCC(=O)CC3)CC2)C1` [compound 153], on M1 muscarinic receptor, the maximum response (Emax) lay within 25 to 100% and the “M1 Activity” value is given as “+ (activity was measured to be greater than 5.0 μM)”. Also, at M4 muscarinic receptor, the Emax was 25 to 100% and the “M4 Activity” value is listed as “++ (activity was measured to be from 1.0 μM to 5.0 μM)”.
Take `CC(C)OC(=O)N1C2CCC1CC(N1CCC3(CC1)CN(S(C)(=O)=O)Cc1ccccc13)C2` (centres unmarked) [compound 154]: at M1 muscarinic receptor, the maximal effect (Emax) fell in the range of 25 to 100% and the “M1 Activity” value is “+++ (activity was measured to be less than 1.0 μM)”. For the same molecule, on M4 muscarinic receptor, the Emax was in the range of 25 to 100% and the “M4 Activity” value was “+++ (activity was measured to be less than 1.0 μM)”.
As to `CCOC(=O)N1CCC(CN2CCC3(CC2)CN(S(=O)(=O)c2c(C)noc2C)Cc2ccccc23)CC1` [compound 155], on M1 muscarinic receptor, the Emax was 25 to 100% and the “M1 Activity” value is “+++ (activity was measured to be less than 1.0 μM)”. Also, at M4 muscarinic receptor, the Emax was in the range of 25 to 100% and the “M4 Activity” value is reported as “+++ (activity was measured to be less than 1.0 μM)”.
In the case of `C#CCOC(=O)N1C2CCC1CC(N1CCC3(CC1)CN(C(C)=O)Cc1ccccc13)C2` (centres unmarked) [compound 156], on M1 muscarinic receptor, the Emax lay within 25 to 100% and the “M1 Activity” value was “+++ (activity was measured to be less than 1.0 μM)”. Also, at M4 muscarinic receptor, the maximal response (Emax) was 25 to 100% and the “M4 Activity” value is on record as “+++ (activity was measured to be less than 1.0 μM)”.
For the molecule `COCCOC(=O)N1Cc2ccccc2C2(CCN(C3CC4CCC(C3)N4C(=O)OC(C)C)CC2)C1` (centres unmarked) [compound 157], on M1 muscarinic receptor, the Emax was 25 to 100% and the “M1 Activity” value is given as “+++ (activity was measured to be less than 1.0 μM)”. At M4 muscarinic receptor, the maximal effect (Emax) lay within 25 to 100% and the “M4 Activity” value is reported as “+++ (activity was measured to be less than 1.0 μM)”.
Regarding `COCCOC(=O)N1CCC(N2CCC3(CC2)CN(C(C)=O)Cc2ccccc23)CC1` [compound 158], on M1 muscarinic receptor, the Emax fell in the range of 25 to 100% and the “M1 Activity” value is “+++ (activity was measured to be less than 1.0 μM)”. In addition, at M4 muscarinic receptor, the Emax lay in the range of 25 to 100% and the “M4 Activity” value is listed as “+++ (activity was measured to be less than 1.0 μM)”.
Take `CCOC(=O)N1C2CCC1CC(N1CCC3(CC1)CN(c1cccc(F)c1)Cc1ccccc13)C2` (centres unmarked) [compound 159]: at M1 muscarinic receptor, the Emax is above 100% and the “M1 Activity” value was “+++ (activity was measured to be less than 1.0 μM)”. Also, on M4 muscarinic receptor, the Emax was in the range of 25 to 100% and the “M4 Activity” value was “+++ (activity was measured to be less than 1.0 μM)”.
As for `CC(=O)N1Cc2ccccc2C2(CCN(CC3CCN(C(=O)OC(C)C)CC3)CC2)C1` [compound 161], on M1 muscarinic receptor, the Emax is 25 to 100% and the “M1 Activity” value is “++ (activity was measured to be from 1.0 μM to 5.0 μM)”. Also, on M4 muscarinic receptor, the Emax is below 25% and the “M4 Activity” value is reported as “+++ (activity was measured to be less than 1.0 μM)”.
For `CCOC(=O)N1C2CCC1CC(N1CCC3(CC1)CN(C(=O)CC(C)(C)C)Cc1ccccc13)C2` (centres unmarked) [compound 162] the same measures were 25 to 100%, “+++ (activity was measured to be less than 1.0 μM)”, 25 to 100% and “+++ (activity was measured to be less than 1.0 μM)”.
On the same counts, the results for `CCOC(=O)N1CCC(N2CCC3(CC2)CN(C(=O)NC2CCCCC2)Cc2ccccc23)CC1` [compound 163] are 25 to 100%, “+++ (activity was measured to be less than 1.0 μM)”, 25 to 100% and “+++ (activity was measured to be less than 1.0 μM)”.
On the same counts, the results for `CCOC(=O)N1CCC(N2CCC3(CC2)CN(C(=O)OC2CCCC2)Cc2ccccc23)CC1` [compound 164] are 25 to 100%, “+++ (activity was measured to be less than 1.0 μM)”, 25 to 100% and “+++ (activity was measured to be less than 1.0 μM)”.
